This is an account of results in patent publication US20150045409A1, “AMIDE COMPOUND AND USE THEREOF FOR PEST CONTROL” (SUMITOMO CHEMICAL COMPANY, LIMITED, priority 2012, published 2015).

As a reminder, the mortality is the percentage killed. Low values mean a weak lethal effect, high ones a strong lethal effect.

Format in all cases: in vivo
The subject of experiment [1] is adult common house mosquitos. Nature of the experiment: Spray knockdown test on adult common house mosquitos (Test Examples 5, 6). To be noted: active ingredient 0.02% w/v oil solution, 0.5 ml sprayed, counted after 15 minutes. Here is the method:
The formulations of Compounds (2), (7), (48) and (49) of the present invention obtained in Formulation Example 7 were diluted with a mixture solution with a ratio of isopropyl alcohol/deodorized kerosene of 1/9, so as to have a concentration of active ingredient of 0.1% w/v, to prepare a test drug solution.
(§1) Ten adult common house mosquitos were released in a polyethylene cup (a bottom diameter of 10.6 cm) which was then capped with 16-mesh nylon gauze. The polyethylene cup was placed on the bottom of a test chamber (bottom: 46 cm×46 cm, height: 70 cm). From a height of 30 cm above the upper surface of the polyethylene cup, 0.5 ml of the test drug solution was sprayed using a spray gun (a spraying pressure of 0.4 kg/cm^2). Immediately after spraying, the cup was taken out from the test container, and after 15 minutes, the number of knockdown insects was counted to obtain a knockdown rate. The knockdown rate was calculated by the following equation.
(§2) Knockdown Rate(%)=(Number of Knockdown Insects/Number of Tested Insects)×100
Each of the formulations of Compounds (19) and (40) to (42) of the present invention obtained in Formulation Example 7 was diluted with a mixture solution with a ratio of isopropyl alcohol/deodorized kerosene of 1/9, so as to have a concentration of active ingredient of 0.02% w/v, to prepare a test drug solution. […]

For experiment [2], the system named is adult houseflies (Musca domestica). The experiment in a line: Filter paper/sucrose bait mortality test on adult houseflies (Test Example 8). The note with it: 0.7 ml on filter paper with sucrose bait, after 24 hours. Here is the method:
Each of the formulations of Compounds (2) to (6), (8), (12), (15) to (18), (27), (29), (33), (37) to (39), (41), (42) and (45) of the present invention obtained in Formulation Example 15 was diluted with water, so as to have a concentration of active ingredient of 500 ppm, to prepare a test drug solution.
On the bottom of a polyethylene cup with a diameter of 5.5 cm, a filter paper of the same size was laid down, and 0.7 ml of the test drug solution was dropped onto the filter paper, then 30 mg of sucrose was uniformly put as bait. Ten adult houseflies (Musca domestica) were released in the polyethylene cup which was then capped.

Experiment [3] has the same test system. Nature of the experiment: Filter paper/sucrose bait knockdown test on adult houseflies (Test Example 7). The note with it: 0.7 ml on filter paper with sucrose bait, after 2 hours, read-out: knockdown rate. Here is the method:
Each of the formulations of Compounds (2), (4) to (6), (8), (9), (18), (21) to (23), (27), (29), (32) to (36), (38), (41), (42) and (53) of the present invention obtained in Formulation Example 15 was diluted with water, so as to have a concentration of active ingredient of 500 ppm, to prepare a test drug solution.
On the bottom of a polyethylene cup with a diameter of 5.5 cm, a filter paper of the same size was laid down, and 0.7 ml of the test drug solution was dropped onto the filter paper, then 30 mg of sucrose was uniformly put as bait. Ten adult houseflies (Musca domestica) were released in the polyethylene cup which was then capped. After 2 hours, the number of knockdown insects was counted to obtain a knockdown rate. The knockdown rate was calculated by the following equation.
as §2

The test system of experiment [4] is last instar larvae of common house mosquitoes (Culex pipiens pallens). Nature of the experiment: Larvicidal test on common house mosquito larvae in water (Test Examples 9, 10). The note with it: 192 h, active ingredient 3.5 ppm in water, after 8 days. Here is the method: Each of the formulations of Compounds (26) and (45) of the present invention obtained in Formulation Example 15 was diluted with water, so as to have a concentration of active ingredient of 500 ppm, to prepare a test drug solution.
0.7 ml of the test drug solution was added to 100 ml of ion-exchanged water (a concentration of active ingredient of 3.5 ppm).
Each of the formulations of Compounds (5), (6), (24), (27), (29), (30), (33), (38) and (47) of the present invention obtained in Formulation Example 15 was diluted with water, so as to have a concentration of active ingredient of 500 ppm, to prepare a test drug solution.

The test system of a further experiment is adult houseflies. Nature of the experiment: Spray knockdown test on adult houseflies (Test Examples 3, 4). The note with it: Musca domestica, 10 min; active ingredient 0.5% w/v oil solution, 0.5 ml sprayed, counted after 10 minutes; read-out: knockdown rate. Here is the method:
The formulations of Compounds (7), (46) and (48) of the present invention obtained in Formulation Example 7 were diluted with a mixture solution with a ratio of isopropyl alcohol/deodorized kerosene of 1/9, so as to have a concentration of active ingredient of 2.0% w/v, to prepare a test drug solution.
as §1, with “houseflies (5 males and 5 females)” for “common house mosquitos”, “0.9” for “0.4”, “10” for “15”
as §2
The formulations of Compounds (4), (6), (8), (17) to (19), (28), (29), (33), (40) to (42) and (51) to (53) of the present invention obtained in Formulation Example 7 were diluted with a mixture solution with a ratio of isopropyl alcohol/deodorized kerosene of 1/9, so as to have a concentration of active ingredient of 0.5% w/v, to prepare a test drug solution. The test was performed in the same manner as in Test Example 3.

Experiment [5] relates to German cockroaches (Blattella germanica). Nature of the experiment: Spray knockdown test on German cockroaches (Test Examples 1, 2). The note with it: 5 min, active ingredient 0.5% w/v oil solution, 1.5 ml sprayed, counted after 5 minutes, read-out: knockdown rate. Here is the method: The formulations of Compounds (7), (46), (48) and (54) of the present invention obtained in Formulation Example 7 were diluted with a mixture solution of isopropyl alcohol/deodorized kerosene of 1/9, so as to have a concentration of active ingredient of 2.0% w/v, to prepare a test drug solution.
Ten German cockroaches (Blattella germanica) (5 males and 5 females) were released in a test container (8.75 cm in diameter, 7.5 cm in height, and the bottom made of 16 mesh metallic wire) with the inner wall on which butter was applied, and the container was placed on the bottom of a test chamber (bottom: 46 cm×46 cm, height: 70 cm). From a height of 60 cm above the upper surface of the container, 1.5 ml of the test drug solution was sprayed using a spray gun (a spraying pressure of 0.42 kg/cm^2). Thirty seconds after spraying, the container was taken out from the test chamber, and after 5 minutes, the number of knockdown insects was counted to obtain a knockdown rate. The knockdown rate was calculated by the following equation.
as §2
The formulations of Compounds (1), (2), (4), (6) to (8), (10) to (14), (17) to (20), (23) to (25), (28), (31) to (33), (39) to (42), (44) and (50) to (53) of the present invention obtained in Formulation Example 7 were diluted with a mixture solution with a ratio of isopropyl alcohol/deodorized kerosene of 1/9, so as to have a concentration of active ingredient of 0.5% w/v, to prepare a test drug solution.
The test was performed in the same manner as in Test Example 1.

Experiment [6] has as its system third-instar larvae of diamondback moth (Plutella xylostella). The experiment in a line: Cabbage foliar spray test on diamondback moth larvae (Test Example 11). To be noted: 500 ppm spray, 20 ml/cup on cabbage, after 5 days. Here is the method: On the other hand, a cabbage was planted in a polyethylene cup and grown until the third true leaf or the fourth true leaf was developed. The test spray solution was sprayed in a ratio of 20 ml/cup on the cabbage. After the drug solution sprayed on the cabbage was dried, 10 third-instar larvae of diamondback moth (Plutella xylostella) were put on the cabbage. After 5 days, the number of diamondback moths was counted, and a controlling value was calculated by the following equation. […] Letters in the formula have the following meanings. Cb: the number of insects in an untreated section before treatment Cai: the number of insects in an untreated section on observation Tb: the number of insects in a treated section before treatment Tai: the number of insects in a treated section on observation

A value given as a limit tells only on which side of the number the result lay.

For `CCCC[C@@H]1C[C@H]1/C=C/C(=O)NCC1CCOC1` (relative stereo) [Compound (19), (E)-N-(tetrahydrofuran-3-ylmethyl)-3-(trans-2′-butylcyclopropyl)-2-propenamide], the knockdown rate in experiment [1] is given as at least 90%.
`C=CCCCCC/C=C/C(=O)NCC1CCOC1` (stereo not shown) [Compound (12), (E)-N-(tetrahydrofuran-3-ylmethyl)-deca-2,9-dienamide] showed a mortality at 500 ppm in experiment [2] of at least 90%.
For `CCCCCCCC/C=C/C(=O)NCC1CCOCC1` [Compound (27), (E)-N-(tetrahydropyran-4-ylmethyl)-2-undecenamide], in experiment [3], the pest or weed control at 500 ppm was determined as 100%. Also, the mortality at 500 ppm in experiment [2] is at least 90%. In experiment [4], this compound returned a mortality at 3.5 ppm of at least 95%.
`CCCCCC/C(C)=C(\F)C(=O)NCC1CCOCC1` [Compound (29), (Z)—N-(tetrahydropyran-4-ylmethyl)-2-fluoro-3-methyl-2-nonenamide]: the pest or weed control at 0.5 % in the experiment with adult houseflies is at least 80%. In experiment [3], the pest or weed control at 500 ppm amounted to 100%. Besides, in experiment [2], the mortality at 500 ppm is at least 90%. In experiment [4], this compound came in with a mortality at 3.5 ppm of at least 95%.
`CCCC1CC1/C=C/C(=O)NCC1CCOCC1` (stereo not drawn) [Compound (41), (E)-N-(tetrahydropyran-4-ylmethyl)-3-(trans-2′-propylcyclopropyl)-2-propenamide]: the pest or weed control at 500 ppm in experiment [3] was 100%. In addition, in experiment [2], the mortality at 500 ppm was at least 90%.
As for `CCCCCC/C(C)=C(\F)C(=O)NCC1CCOC1` (stereo not shown) [Compound (8), (Z)—N-(tetrahydrofuran-3-ylmethyl)-2-fluoro-3-methyl-2-nonenamide], the pest or weed control at 0.5 % with adult houseflies was at least 80%. Moreover, in experiment [3], the pest or weed control at 500 ppm was found to be 100%. This compound also returned a mortality at 500 ppm in experiment [2] of at least 90%.
As to `C=CCCCCC/C=C/C(=O)NCC1CCOCC1` [Compound (33), (E)-N-(tetrahydropyran-4-ylmethyl)-deca-2,9-dienamide], the pest or weed control at 0.5 % in the experiment on adult houseflies is at least 80%. The compound also showed a mortality at 500 ppm in experiment [2] of at least 90%. In experiment [4], the mortality at 3.5 ppm is at least 95%.
For `CCCCC1CC1/C=C/C(=O)NCC1CCOCC1` (stereo not drawn) [Compound (42), (E)-N-(tetrahydropyran-4-ylmethyl)-3-(trans-2′-butylcyclopropyl)-2-propenamide], the pest or weed control at 500 ppm in experiment [3] came to 100%. In experiment [2], this compound had a mortality at 500 ppm of at least 90%.
Regarding `CCCCCC/C(C)=C/C(=O)NCC1CCOCC1` [Compound (28), (E)-N-(tetrahydropyran-4-ylmethyl)-3-methyl-2-nonenamide], the pest or weed control at 0.5 % is at least 70% in experiment [5] and at least 80% with adult houseflies.
In experiment [6], `CCCCC1C(/C=C/C(=O)NCC2CCOCC2)C1(C)C` (stereo not drawn) [Compound (43), (E)-N-(tetrahydropyran-4-ylmethyl)-3-(trans-2′-butyl-3′,3′-dimethylcyclopropyl)-2-propenamide] came in with a controlling value of 100%.
